Measurements: patent publication US6930075B1, “Fatty acid-based herbicidal composition” (priority 1990, dated 2005)

How the values were obtained:
Assay type in all cases: in vivo
[1] = test system: Hypochoeris radicata (false dandelion); test: Greenhouse post-emergence spray, plant damage rating; settings: H. radicata, alone and combined
Description: (§1) Three species of weed, used in each test: Hypochoeris radicata (false dandelion), Sinapis, arvensis (wild mustard), and Avena sativa (oats), were grown in a greenhouse facility in 5.5 cm square pots using a potting soil mix comprising peat, vermiculite, sand, and 4-10-10 fertilizer. Water-soluble 20-20-20 fertilizer was used as a supplement for the plants as required. The plants were selected for use based on uniformity and quality and were potted separately. One plant per pot each of H. radicata (6–10 leaves) and S. arvensis (4–6 leaves) were used. Six to eight plants of A. sativa (2–4 leaves) were used per pot. After spraying with a herbicidal composition (as described below) the pots were arranged in a randomized complete block design in sub-irrigated watering trays. Six to ten replicates (pots) were used per treatment.
(§2) Herbicidal treatments were applied using a spray chamber fitted with a TeeJet 8006E flat fan nozzle (available from Spraying Systems Co., Wheaton, Ill.), calibrated to spray at a volume of 60 gpa at 40 psi. Treatment solutions were freshly prepared for each experiment. Plant damage was assessed at 10 to 14 days after treatment using a pre-transformed 0–10 rating scale (0 representing no damage, 10 representing plant death) in accordance with the procedure outlined in Statistical Methods in Agricultural Research, Little, T. M. et al, J. Wiley and Sons, 1975, pp. 119–120, 218.

[2] = test system: Sinapis arvensis (wild mustard); test: as above; settings: S. arvensis, alone and combined
Description: as §1, §2

Avena sativa (oats) = test: as above; settings: A. sativa, alone and combined
Description: as §1, §2

Oats = test: Greenhouse spray, phytotoxicity and mortality over time
Description: (§3) Herbicidal treatments were applied using a spray chamber fitted with a TeeJet 8006E flat fan nozzle (available from Spraying Systems Co., Wheaton, Ill.), calibrated to spray at a volume of 60 gpa at 40 psi. Treatment solutions were freshly prepared for each experiment. […] M. et al, J. Wiley and Sons, 1975, pp. 119–120, 218.
(§4) In a greenhouse facility four plant species were grown in 5.5 cm square pots using a potting soil mix comprising peat, vermiculite, sand and 4-10-10 fertilizer. Water soluble 20-20-20 fertilizer was used as a supplement for the plants as required. The plant species used were corn, oats, radish and morningglory. The plants were selected for use based on uniformity and quality. The corn plants used were in the 3 to 4 leaf stage and two plants were present in each pot. The oats used were in the 2 to 4 leaf stage and four plants were present per pot. The radish plants used were in the 3 to 5 leaf stage and one plant was used per pot. The morningglory were in the 2 to 4 leaf stage with one plant per pot. After spraying with a herbicidal formulation, the pots were arranged in a randomized complete block design in sub-irrigated watering trays, and included a water-treated control treatment. Four replicates (pots) were used for each treatment.
(§5) Herbicidal treatments were applied and recorded as in Example 1.

Corn = test: as above; settings: for Mortality: plants died of 8
Description: as §3, §4, §5

Morningglory = test: as above; settings: for Mortality: plants died of 4
Description: as §3, §4, §5

[3] = Table 2 set 1: Round-Up 0.1%, Sodium pelargonate 0.1%
[4] = Table 2 set 2: Round-Up 0.1%, Sodium pelargonate 0.1% (so in the source)
[5] = Table 2 set 3: Round-Up 0.1%, Sodium pelargonate 0.1% (so in the source)

SMILES: CCCCCCCCC(=O)[O-].[Na+] [Sodium pelargonate]
- Phytotoxicity (%) Observed [1, 3]: 0%
- Phytotoxicity (%) Observed [1, 4]: 0%
- Phytotoxicity (%) Observed [1, 5]: 0%
- Phytotoxicity (%) Observed [2, 3]: 0%
- Phytotoxicity (%) Observed [2, 4]: 0%
- Phytotoxicity (%) Observed [2, 5]: 0%
- Phytotoxicity (%) Observed (Avena sativa (oats); [3]): 0%
- Phytotoxicity (%) Observed (Avena sativa (oats); [4]): 0%
- Phytotoxicity (%) Observed (Avena sativa (oats); [5]): 1%
- Phyto (phytotoxicity ratings, 0–10 rating scale) (Oats; 2 Days after Treatment): 0
- Phyto (phytotoxicity ratings, 0–10 rating scale) (Oats; 4 Days after Treatment): 0
- Phyto (phytotoxicity ratings, 0–10 rating scale) (Oats; 7 Days after Treatment): 0
- Phyto (phytotoxicity ratings, 0–10 rating scale) (Oats; 9 Days after Treatment): 0
- Phyto (phytotoxicity ratings, 0–10 rating scale) (Oats; 11 Days after Treatment): 0
- Phyto (phytotoxicity ratings, 0–10 rating scale) (Oats; 16 Days after Treatment): 0
- Phyto (phytotoxicity ratings, 0–10 rating scale) (Oats; 18 Days after Treatment): 0
- Phyto (phytotoxicity ratings, 0–10 rating scale) (Oats; 21 Days after Treatment): 0
- Phyto (phytotoxicity ratings, 0–10 rating scale) (Oats; 23 Days after Treatment): 0
- Phyto (phytotoxicity ratings, 0–10 rating scale) (Oats; 25 Days after Treatment): 0
- Phyto (phytotoxicity ratings, 0–10 rating scale) (Oats; 28 Days after Treatment): 0
- Phyto (phytotoxicity ratings, 0–10 rating scale) (Oats; 30 Days after Treatment): 0
- Phyto (phytotoxicity ratings, 0–10 rating scale) (Oats; 32 Days after Treatment): 0
- Phyto (phytotoxicity ratings, 0–10 rating scale) (Oats; 35 Days after Treatment): 0
- Phyto (Phytotoxicity, 0–10 rating scale) (Corn; 2 Days after Treatment): 0
- Mortality (Corn; 2 Days after Treatment): 0
- Phyto (Phytotoxicity, 0–10 rating scale) (Corn; 4 Days after Treatment): 0
- Mortality (Corn; 4 Days after Treatment): 0
- Phyto (Phytotoxicity, 0–10 rating scale) (Corn; 7 Days after Treatment): 0
- Mortality (Corn; 7 Days after Treatment): 0
- Phyto (Phytotoxicity, 0–10 rating scale) (Corn; 9 Days after Treatment, listed as 0.1% C9 Na^+ Salt): 0
- Phyto (Phytotoxicity, 0–10 rating scale) (Corn; 9 Days after Treatment, listed as 0.5% C9 Na^+ Salt): 0.5
- Phyto (Phytotoxicity, 0–10 rating scale) (Corn; 9 Days after Treatment, listed as 1.0% C9 Na^+ Salt): 0
- Mortality (Corn; 9 Days after Treatment): 0
- Phyto (Phytotoxicity, 0–10 rating scale) (Corn; 11 Days after Treatment, listed as 0.1% C9 Na^+ Salt): 0
- Phyto (Phytotoxicity, 0–10 rating scale) (Corn; 11 Days after Treatment, listed as 0.5% C9 Na^+ Salt): 0.5
- Phyto (Phytotoxicity, 0–10 rating scale) (Corn; 11 Days after Treatment, listed as 1.0% C9 Na^+ Salt): 0
- Mortality (Corn; 11 Days after Treatment): 0
- Phyto (Phytotoxicity, 0–10 rating scale) (Corn; 16 Days after Treatment, listed as 0.1% C9 Na^+ Salt): 0.25
- Phyto (Phytotoxicity, 0–10 rating scale) (Corn; 16 Days after Treatment, listed as 0.5% C9 Na^+ Salt): 1.0
- Phyto (Phytotoxicity, 0–10 rating scale) (Corn; 16 Days after Treatment, listed as 1.0% C9 Na^+ Salt): 0.25
- Mortality (Corn; 16 Days after Treatment): 0
- Phyto (Phytotoxicity, 0–10 rating scale) (Corn; 18 Days after Treatment, listed as 0.1% C9 Na^+ Salt): 1.0
- Phyto (Phytotoxicity, 0–10 rating scale) (Corn; 18 Days after Treatment, listed as 0.5% C9 Na^+ Salt): 1.0
- Phyto (Phytotoxicity, 0–10 rating scale) (Corn; 18 Days after Treatment, listed as 1.0% C9 Na^+ Salt): 0.25
- Mortality (Corn; 18 Days after Treatment): 0
- Phyto (Phytotoxicity, 0–10 rating scale) (Corn; 21 Days after Treatment, listed as 0.1% C9 Na^+ Salt): 1.0
- Phyto (Phytotoxicity, 0–10 rating scale) (Corn; 21 Days after Treatment, listed as 0.5% C9 Na^+ Salt): 1.0
- Phyto (Phytotoxicity, 0–10 rating scale) (Corn; 21 Days after Treatment, listed as 1.0% C9 Na^+ Salt): 0.5
- Mortality (Corn; 21 Days after Treatment): 0
- Phyto (Phytotoxicity, 0–10 rating scale) (Corn; 23 Days after Treatment, listed as 0.1% C9 Na^+ Salt): 1.0
- Phyto (Phytotoxicity, 0–10 rating scale) (Corn; 23 Days after Treatment, listed as 0.5% C9 Na^+ Salt): 1.0
- Phyto (Phytotoxicity, 0–10 rating scale) (Corn; 23 Days after Treatment, listed as 1.0% C9 Na^+ Salt): 0.75
- Mortality (Corn; 23 Days after Treatment): 0
- Phyto (Phytotoxicity, 0–10 rating scale) (Corn; 25 Days after Treatment): 1.0
- Mortality (Corn; 25 Days after Treatment): 0
- Phyto (Phytotoxicity, 0–10 rating scale) (Corn; 28 Days after Treatment): 0
- Mortality (Corn; 28 Days after Treatment): 0
- Phyto (Phytotoxicity, 0–10 rating scale) (Corn; 30 Days after Treatment): 0
- Mortality (Corn; 30 Days after Treatment): 0
- Phyto (Phytotoxicity, 0–10 rating scale) (Corn; 32 Days after Treatment): 0
- Mortality (Corn; 32 Days after Treatment): 0
- Phyto (Phytotoxicity, 0–10 rating scale) (Corn; 35 Days after Treatment): 0
- Mortality (Corn; 35 Days after Treatment): 0
- Phyto (Phytotoxicity, 0–10 rating scale) (Corn; 42 Days after Treatment): 0
- Mortality (Corn; 42 Days after Treatment): 0
- Phyto (Phytotoxicity, 0–10 rating scale) (Corn; 46 Days after Treatment): 0
- Mortality (Corn; 46 Days after Treatment): 0
- Phyto (Phytotoxicity, 0–10 rating scale) (Corn; 57 Days after Treatment): 0
- Mortality (Corn; 57 Days after Treatment): 0
- Phyto (Phytotoxicity, 0–10 rating scale) (Morningglory; 2 Days after Treatment): 0
- Mortality (Morningglory; 2 Days after Treatment): 0
- Phyto (Phytotoxicity, 0–10 rating scale) (Morningglory; 4 Days after Treatment): 0
- Mortality (Morningglory; 4 Days after Treatment): 0
- Phyto (Phytotoxicity, 0–10 rating scale) (Morningglory; 7 Days after Treatment): 0
- Mortality (Morningglory; 7 Days after Treatment): 0
- Phyto (Phytotoxicity, 0–10 rating scale) (Morningglory; 9 Days after Treatment): 0
- Mortality (Morningglory; 9 Days after Treatment): 0
- Phyto (Phytotoxicity, 0–10 rating scale) (Morningglory; 11 Days after Treatment): 0
- Mortality (Morningglory; 11 Days after Treatment): 0
- Phyto (Phytotoxicity, 0–10 rating scale) (Morningglory; 16 Days after Treatment): 0
- Mortality (Morningglory; 16 Days after Treatment): 0
- Phyto (Phytotoxicity, 0–10 rating scale) (Morningglory; 18 Days after Treatment): 0
- Mortality (Morningglory; 18 Days after Treatment): 0
- Phyto (Phytotoxicity, 0–10 rating scale) (Morningglory; 21 Days after Treatment): 0
- Mortality (Morningglory; 21 Days after Treatment): 0
- Phyto (Phytotoxicity, 0–10 rating scale) (Morningglory; 23 Days after Treatment): 0
- Mortality (Morningglory; 23 Days after Treatment): 0
- Phyto (Phytotoxicity, 0–10 rating scale) (Morningglory; 25 Days after Treatment): 0
- Mortality (Morningglory; 25 Days after Treatment): 0
- Phyto (Phytotoxicity, 0–10 rating scale) (Morningglory; 28 Days after Treatment): 0
- Mortality (Morningglory; 28 Days after Treatment): 0
- Phyto (Phytotoxicity, 0–10 rating scale) (Morningglory; 30 Days after Treatment): 0
- Mortality (Morningglory; 30 Days after Treatment): 0
- Phyto (Phytotoxicity, 0–10 rating scale) (Morningglory; 32 Days after Treatment): 0
- Mortality (Morningglory; 32 Days after Treatment): 0
- Phyto (Phytotoxicity, 0–10 rating scale) (Morningglory; 35 Days after Treatment): 0
- Mortality (Morningglory; 35 Days after Treatment): 0
